Values quoted from earlier work as cited in patent publication US20260335282A1, “NOVEL 3-ARYLIDENE-2-INDOLINONE DERIVATIVES FOR THERAPEUTIC USE” (ISTANBUL UNIVERSITESI REKTORLUGU, priority 2022, published 2026).

How the values were obtained:
HT-29 and MKN-45 cells = conditions: Wang et al. 2021; cited from earlier work
HUVEC cell line = conditions: Wang et al. 2021; cited from earlier work
VEGFR-2 = conditions: Wang et al. 2021; cited from earlier work
angiogenesis = conditions: transgenic zebrafish, Wang et al. 2021; cited from earlier work

## Cc1ccc(-n2cc(-c3ccc(/C=C4\C(=O)Nc5ccccc54)cc3)nn2)cc1 [III]
HT-29 and MKN-45 cells
  cytotoxicity vs sunitinib: better cytotoxicity on HT-29 and MKN-45 cells
HUVEC cell line
  toxicity to HUVEC vs sunitinib: less toxic to HUVEC cell line than sunitinib
VEGFR-2
  inhibitory activity on VEGFR-2 vs sunitinib: greater inhibitory activity on VEGFR-2
angiogenesis
  inhibitory effect on angiogenesis: confirmed in vivo
